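Following 48 hours of exposure in 96-well plates, responses at five concentrations were used to interpolate endpoints linearly. GI50: concentration for 50% inhibition of growth.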 Activity calls are given as the source filed them. Cut-off read from the data, not from the text of the source: active = GI50 up to about 1.1 µM and inactive = higher.
Legend:
Assay in all cases: DTP human tumour cell line panel, 48 h
HCT-116 = tested on: HCT-116
UO-31 = tested on: UO-31
TK-10 = tested on: TK-10
UACC-62 = tested on: UACC-62
CCRF-CEM = tested on: CCRF-CEM
UACC-257 = tested on: UACC-257
NCI-H226 = tested on: NCI-H226
LOX IMVI = tested on: LOX IMVI
OVCAR-8 = tested on: OVCAR-8
SNB-19 = tested on: SNB-19
NCI-H23 = tested on: NCI-H23
RXF 393 = tested on: RXF 393
SK-MEL-5 = tested on: SK-MEL-5
K562 = tested on: K562
RPMI-8226 = tested on: RPMI-8226
OVCAR-4 = tested on: OVCAR-4
Malme-3M = tested on: Malme-3M
SK-OV-3 = tested on: SK-OV-3
SF-539 = tested on: SF-539
MOLT-4 = tested on: MOLT-4

Measured: GI50

CCOC(=O)C(O)(NC(=O)c1ccccc1F)C(F)(F)F (stereo not given)
inactive: HCT-116 > 100 µM | UO-31 > 100 µM | TK-10 > 100 µM | UACC-62 > 100 µM | CCRF-CEM > 100 µM | UACC-257 > 100 µM | NCI-H226 > 100 µM | LOX IMVI > 100 µM | OVCAR-8 > 100 µM | SNB-19 > 100 µM | NCI-H23 > 100 µM | RXF 393 > 100 µM | SK-MEL-5 > 100 µM | K562 > 100 µM | RPMI-8226 > 100 µM | OVCAR-4 > 100 µM | Malme-3M > 100 µM | SK-OV-3 > 100 µM | SF-539 > 100 µM | MOLT-4 > 100 µM

CC1(C)N=C(/C(Cl)=[N+](/[O-])C(=O)c2ccc(Cl)cc2)C(C)(C)N1O
inactive: HCT-116 16.3 µM | UO-31 > 100 µM | TK-10 19.8 µM | UACC-62 > 10 µM | CCRF-CEM 7.52 µM | UACC-257 18.2 µM | NCI-H226 25.9 µM | LOX IMVI 6.76 µM | OVCAR-8 20.4 µM | SNB-19 > 100 µM | NCI-H23 22.1 µM | RXF 393 22 µM | SK-MEL-5 20 µM | K562 5.51 µM | RPMI-8226 26.5 µM | OVCAR-4 26.4 µM | Malme-3M 17.7 µM | SK-OV-3 > 100 µM | SF-539 21.3 µM | MOLT-4 > 10 µM

Source: ChEMBL document CHEMBL1201862, “PubChem BioAssay data set” (2004)
